Experimental data taken from US7300946B2, “N-(substituted arylmethyl)-4-(disubstituted methyl) piperidines and pyridines” (Bayer CropScience AG, priority 2002, dated 2007).

Tested on: tobacco budworm (Heliothis virescens [Fabricius])
Assay: surface-treated diet test against the tobacco budworm
Format: in vivo
Conditions: tobacco budworm second instar larvae, 0.25 millimoles of candidate insecticide on the surface of the diet, five-day exposure; for Percent Mortality: compared to total number of insects infested; for Percent Growth Inhibition: inhibition of insect weight relative to untreated controls
In short: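 Wheat germ artificial diet surface-treated with 40 µL of 50 mM DMSO stock diluted 1:7 in 1:1 water/acetone (0.25 millimolar on diet), or sub-multiples for rate tests. One second-instar larva per well, 25° C, 60% RH, 5 days; percent weight inhibition vs DMSO controls and percent mortality.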

Row | SMILES | Percent Mortality (surface-treated diet) | Percent Growth Inhibition (surface-treated diet) | Percent Mortality | Percent Growth Inhibition
1 | O=C(Nc1cc(F)c(F)c(F)c1)OC(c1ccc(C(F)(F)F)cc1)C1CCN(Cc2ccc(Oc3ccccn3)cc2)CC1 (centres unmarked) [Compound 697] | 100% | 100% | – | –
2 | Cn1nnc(-c2ccc(CN3CCC(C(NC(=O)Nc4ccccc4F)c4ccc(OC(F)(F)F)cc4)CC3)cc2)n1 (centres unmarked) [Compound 338] | 100% | 100% | – | –
3 | O=C(Nc1ccc(F)cc1)OC(c1ccc(Cl)cc1)C1CCN(Cc2ccc(Oc3ccccn3)cc2)CC1 (centres unmarked) [Compound 630] | 100% | 100% | – | –
4 | [O-][N+]1(Cc2ccc(Oc3ncccn3)cc2)CCC(=C(c2ccc(C(F)(F)F)cc2)c2ccccc2Cl)CC1 (centres unmarked) [Compound 845] | – | – | 83% | 100%
5 | CCn1nnc(-c2ccc(CN3CCC(C(OC(=O)Nc4ccc(F)c(F)c4)c4ccc(Cl)c(Cl)c4)CC3)cc2)n1 (centres unmarked) [Compound 574] | 100% | 100% | – | –
6 | COC(=O)C(NC(=O)OC(c1ccc(C(F)(F)F)cc1)C1CCN(Cc2ccc(Oc3ccccn3)cc2)CC1)C(C)C (centres unmarked) [Compound 784] | – | – | 100% | 100%
7 | O=C(Nc1ccc(Cl)cc1)OC(c1ccc(C(F)(F)F)cc1)C1CCN(Cc2ccc(Oc3ccccn3)cc2)CC1 (centres unmarked) [Compound 665] | 0% | 100% | – | –
8 | O=C(Nc1cc(F)cc(F)c1)OC(c1ccc(OC(F)(F)F)cc1)C1CCN(Cc2ccc(I)cc2)CC1 (centres unmarked) [Compound 462] | 83% | 100% | – | –
9 | CCn1nnc(-c2ccc(CN3CCC(C(OC(=O)Nc4ccc(C(F)(F)F)cc4)c4ccc(OC)cc4)CC3)cc2)n1 (centres unmarked) [Compound 606] | 100% | 100% | – | –
10 | O=C(Nc1ccc(F)c(F)c1)OC(c1ccc(OC(F)(F)F)cc1)C1CCN(Cc2ccc(Oc3ccccn3)cc2)CC1 (centres unmarked) [Compound 238] | 100% | 100% | – | –
11 | C=C(C)COC(=O)Nc1ccc(CN2CCC(=C(c3ccc(Cl)cc3)c3ccc(Cl)cc3)CC2)cc1 [Compound 800] | – | – | 0% | 86%
12 | CC(C)S(=O)(=O)Oc1ccc(CN2CCC(=C(c3ccc(C(F)(F)F)cc3)c3ccc(C(F)(F)F)cc3)CC2)cc1 [Compound 804] | – | – | 100% | 100%
13 | O=C(Nc1ccccn1)OC(c1ccc(C(F)(F)F)cc1)C1CCN(Cc2ccc(Oc3ccccn3)cc2)CC1 (centres unmarked) [Compound 436] | 50% | 100% | – | –
14 | CCON=Cc1ccc(CN2CCC(C(OC(=O)Nc3cc(Cl)c(OC)cc3OC)c3ccc(C(F)(F)F)cc3)CC2)cc1 (centres unmarked) [Compound 210] | 0% | 67% | – | –
15 | Cn1nnc(-c2ccc(C[N+]3([O-])CCC(C(OC(=O)Nc4ccc(OC(F)(F)F)cc4)c4ccc(OC(F)(F)F)cc4)CC3)cc2)n1 (centres unmarked) [Compound 404] | 100% | 100% | – | –
16 | O=C(Nc1cc(F)cc(F)c1)OC(c1ccc(C(F)(F)F)cc1)C1CCN(Cc2ccc(Oc3ccc(Cl)cn3)cc2)CC1 (centres unmarked) [Compound 684] | 100% | 100% | – | –
17 | CCNC(=S)Nc1ccc(CN2CCC(C(OC(=O)Nc3cc(F)cc(F)c3)c3ccc(C(F)(F)F)cc3)CC2)cc1 (centres unmarked) [Compound 518] | 17% | 96% | – | –
18 | CC(C)OC(=O)Nc1ccc(CN2CCC(C(OC(=O)Nc3cccc(F)c3)c3ccc(F)cc3)CC2)cc1 (centres unmarked) [Compound 504] | 100% | 100% | – | –
19 | Cn1nnc(-c2ccc(CN3CCC(C(NC(=O)c4ccc(Cl)cc4)c4ccc(OC(F)(F)F)cc4)CC3)cc2)n1 (centres unmarked) [Compound 324] | 83% | 99% | – | –

Row | SMILES | Percent Mortality (surface-treated diet) | Percent Growth Inhibition (surface-treated diet) | Percent Mortality | Percent Growth Inhibition
20 | CC(C)COC(=O)Nc1ccc(C[N+]2([O-])CCC(=C(c3ccc(C(F)(F)F)cc3)c3ccc(C(F)(F)F)cc3)CC2)cc1 (centres unmarked) [Compound 104] | 100% | 100% | – | –
21 | Cn1nnc(-c2ccc(CN3CCC(C(OC(=O)Nc4ccccc4F)c4ccc(OC(F)(F)F)cc4)CC3)cc2)n1 (centres unmarked) [Compound 272] | 99% | 100% | – | –
22 | CCON=Cc1ccc(CN2CCC(C(OC(=O)Nc3cccc4c3CC=CC4)c3ccc(C(F)(F)F)cc3)CC2)cc1 (centres unmarked) [Compound 214] | 0% | 100% | – | –
23 | Cn1nnc(-c2ccc(CN3CCC(C(OC(=O)Nc4ccc(F)cc4)c4ccc(Cl)cc4)CC3)cc2)n1 (centres unmarked) [Compound 274] | 100% | 100% | – | –
24 | CCON=Cc1ccc(CN2CCC(C(OC(=O)Nc3cc(F)cc(F)c3)c3ccc(Cl)cc3)CC2)cc1 (centres unmarked) [Compound 525] | 100% | 100% | – | –
25 | O=C(Nc1cc(F)cc(F)c1)OC(c1ccc(Cl)cc1)C1CCN(Cc2ccc(Oc3ccccn3)cc2)CC1 (centres unmarked) [Compound 631] | 100% | 100% | – | –
26 | O=C(Nc1cc(F)cc(F)c1)OC(c1ccc(C(F)(F)F)cc1)C1CCN(Cc2ccc(Oc3ccc(C(F)(F)F)cn3)cc2)CC1 (centres unmarked) [Compound 691] | 100% | 100% | – | –
27 | C#CCON=Cc1ccc(CN2CCC(C(OC(=O)Nc3cc(F)cc(F)c3)c3ccc(C(F)(F)F)cc3)CC2)cc1 (centres unmarked) [Compound 540] | 100% | 100% | – | –
28 | CCn1nnc(-c2ccc(CN3CCC(C(OC(=O)Nc4ccc(C(F)(F)F)cc4)c4ccc(OC(F)(F)F)cc4)CC3)cc2)n1 (centres unmarked) [Compound 291] | 100% | 95% | – | –
29 | O=C(Nc1ccc(C(F)(F)F)cc1)OC(c1cccc(C(F)(F)F)c1)C1CCN(Cc2ccc(Oc3ccccn3)cc2)CC1 (centres unmarked) [Compound 656] | 100% | 100% | – | –
30 | FC(F)(F)c1ccc(C(Oc2ccc(C(F)(F)F)cn2)C2CCN(Cc3ccc(Oc4ccc(Cl)nn4)cc3)CC2)cc1 (centres unmarked) [Compound 440] | 100% | 100% | – | –
31 | CCN(C(=O)OC(c1ccc(Cl)cc1)C1CCN(Cc2ccc(Oc3ccccn3)cc2)CC1)c1ccc(C(F)(F)F)cc1 (centres unmarked) [Compound 637] | 100% | 100% | – | –
32 | CCCCCc1ccc(CN2CCC(C(OC(=O)Nc3cc(F)cc(F)c3)c3ccc(C(F)(F)F)cc3)CC2)cc1 (centres unmarked) [Compound 467] | 0% | 68% | – | –
33 | [O-][N+]1(Cc2ccc(Oc3ccc(Cl)nn3)cc2)CCC(=C(c2ccc(C(F)(F)F)cc2)c2ccc(C(F)(F)F)cc2)CC1 (centres unmarked) [Compound 855] | – | – | 100% | 100%
34 | O=C(Nc1cccc(F)c1)OC(c1ccc(OC(F)(F)F)cc1)C1CCN(Cc2ccc(Oc3ccccn3)cc2)CC1 (centres unmarked) [Compound 235] | 100% | 100% | – | –
35 | O=C(Nc1ccc(F)c(F)c1)OC(c1ccc(C(F)(F)F)cc1)C1CC[N+]([O-])(Cc2ccc(Oc3ncccn3)cc2)CC1 (centres unmarked) [Compound 764] | – | – | 100% | 100%
36 | Cn1nnc(-c2ccc(CN3CCC(C(NCc4ccccc4F)c4ccc(OC(F)(F)F)cc4)CC3)cc2)n1 (centres unmarked) [Compound 313] | 100% | 100% | – | –
37 | Cn1nnc(-c2ccc(CN3CCC(C(NC(=O)c4ccc(Br)cc4)c4ccc(OC(F)(F)F)cc4)CC3)cc2)n1 (centres unmarked) [Compound 325] | 50% | 100% | – | –
